According to article PMC2594009 (Structure (London, England : 1993), 2008):
Entries after “also recorded” stand apart in the source; their conditions may differ.

Assays:
[1] = tested on: M2; settings: cited from earlier work
[2] = tested on: WT AM2; format: cell-based, influenza A virus; settings: pH 5.5

NC12CC3CC(CC(C3)C1)C2 [amantadine]
Hill coefficient [1]: 1.0 | reversibility of inhibition after removal of the drug [2]: did not reverse; also recorded: not reversible
